Reference: patent US8314078B2, “Silver nanoparticles as anti-microbial” (Vascular Vision Pharmaceutical Co., priority 2009, dated 2012)

Tests used:
S. aureus = test: Minimum Inhibition Concentration (MIC) assay, modified micro-broth dilution, S. aureus; type: cell-based, Staphylococcus aureus; settings: for activity against Staphylococcus aureus: at concentrations up to 1.0 μM; for MIC against S. aureus: mean±SEM, n=3, 18 hours at 37° C.
E. coli = test: Minimum Inhibition Concentration (MIC) assay, modified micro-broth dilution, E. coli; type: cell-based, Escherichia coli; settings: for activity against Escherichia coli: at concentrations up to 1.0 μM; for MIC against E. coli: mean±SEM, n=3, 18 hours at 37° C.

## hyaluronan [HA]
S. aureus
  activity against Staphylococcus aureus: no activity
  MIC against S. aureus: >1.0 μM of sugar
E. coli
  activity against Escherichia coli: no activity
  MIC against E. coli: >1.0 μM of sugar

## 2,6-diaminopyridinyl heparin [DAPHP]
S. aureus
  activity against Staphylococcus aureus: no activity
  MIC against S. aureus: >1.0 μM of sugar
E. coli
  activity against Escherichia coli: no activity
  MIC against E. coli: >1.0 μM of sugar
